Columns and labels:
[1] = molecular target: Mitogen-activated protein kinase kinase kinase 5 (Homo sapiens) (UniProt Q99683); assay: ASK1 (h) Millipore kinase activity assay; conditions: Compound concentration 1.0 uM
[2] = molecular target: Tyrosine-protein kinase BTK (Homo sapiens) (UniProt Q06187); assay: BTK (h) Millipore kinase activity assay; conditions: Compound concentration 1.0 uM
[3] = molecular target: Cyclin-dependent kinase 2/cyclin E (Homo sapiens) (UniProt P24864+P24941+O96020); assay: CDK2/cyclinE (h) Millipore kinase activity assay; format: protein-complex assay; conditions: Compound concentration 1.0 uM
[4] = molecular target: Serine/threonine-protein kinase STK11 (Homo sapiens) (UniProt Q15831); assay: LKB1 (h) Millipore kinase activity assay; conditions: Compound concentration 1.0 uM
[5] = molecular target: Tyrosine-protein kinase Mer (Homo sapiens) (UniProt Q12866); assay: Mer (h) Millipore kinase activity assay; conditions: Compound concentration 1.0 uM
[6] = molecular target: Ribosomal protein S6 kinase beta-1 (Homo sapiens) (UniProt P23443); assay: p70S6K (h) Millipore kinase activity assay; conditions: Compound concentration 1.0 uM
Ribosomal protein S6 kinase beta-1 (Homo sapiens), sequence (P23443 whole entry, looked up): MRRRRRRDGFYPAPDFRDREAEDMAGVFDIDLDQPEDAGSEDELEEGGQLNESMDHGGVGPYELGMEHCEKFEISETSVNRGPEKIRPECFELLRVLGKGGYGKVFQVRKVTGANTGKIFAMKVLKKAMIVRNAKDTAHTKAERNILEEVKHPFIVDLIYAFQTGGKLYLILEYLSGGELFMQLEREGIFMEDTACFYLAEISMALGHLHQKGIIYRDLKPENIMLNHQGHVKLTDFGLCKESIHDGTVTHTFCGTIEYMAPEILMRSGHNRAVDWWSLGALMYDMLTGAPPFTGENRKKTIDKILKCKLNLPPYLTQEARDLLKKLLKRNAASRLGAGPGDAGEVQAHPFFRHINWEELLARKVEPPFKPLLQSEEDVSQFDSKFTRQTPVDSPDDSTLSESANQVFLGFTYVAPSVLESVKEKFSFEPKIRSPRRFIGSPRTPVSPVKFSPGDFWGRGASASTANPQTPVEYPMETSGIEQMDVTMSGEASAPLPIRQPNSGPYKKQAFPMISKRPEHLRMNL

[7] = molecular target: Protein kinase C eta type (Homo sapiens) (UniProt P24723); assay: PKCeta (h) Millipore kinase activity assay; conditions: Compound concentration 1.0 uM
[8] = molecular target: Serine/threonine-protein kinase SIK1 (Homo sapiens) (UniProt P57059); assay: SIK (h) Millipore kinase activity assay; conditions: Compound concentration 1.0 uM
[9] = molecular target: L-type calcium channel, benzothiazepine site (Cav1.2 alpha-1C) (Homo sapiens, UniProt Q13936); assay: Inhibition of Calcium Channel L-Type, Benzothiazepine at 10 µM in the Eurofins-Panlabs radioligand binding assay (Eurofins_assay_214510); parameters: ligand concentration 2 nM, non-specific ligand with concentration 10 µM Diltiazem, incubation time 3h, incubation temperature 4 °C; conditions: male, Wistar, rat, rat whole brain preparation, probe [3H] Diltiazem; compound concentration 10 uM; target entry is the homologue from another species
[10] = species on record: Rattus norvegicus; assay: Inhibition of Imidazoline I2, Central at 10 µM in the Eurofins-Panlabs radioligand binding assay (Eurofins_assay_241000); parameters: ligand concentration 2 nM; conditions: Compound concentration 10.0 uM
[11] = molecular target: GABA-A receptor; anion channel (Rattus norvegicus) (UniProt O09028+P15431+P18506+P18508+P19969+P20236+P23574+P23576+P28471+P28473+P30191+P62813+P63079+P63138+Q91ZM7+Q9ES14); conditions: Compound concentration 10.0 uM
[12] = molecular target: T1, 5-hydroxytryptamine receptor 1A (Homo sapiens) (UniProt P08908); conditions: Compound concentration 10.0 uM
T1 sequence (whole entry): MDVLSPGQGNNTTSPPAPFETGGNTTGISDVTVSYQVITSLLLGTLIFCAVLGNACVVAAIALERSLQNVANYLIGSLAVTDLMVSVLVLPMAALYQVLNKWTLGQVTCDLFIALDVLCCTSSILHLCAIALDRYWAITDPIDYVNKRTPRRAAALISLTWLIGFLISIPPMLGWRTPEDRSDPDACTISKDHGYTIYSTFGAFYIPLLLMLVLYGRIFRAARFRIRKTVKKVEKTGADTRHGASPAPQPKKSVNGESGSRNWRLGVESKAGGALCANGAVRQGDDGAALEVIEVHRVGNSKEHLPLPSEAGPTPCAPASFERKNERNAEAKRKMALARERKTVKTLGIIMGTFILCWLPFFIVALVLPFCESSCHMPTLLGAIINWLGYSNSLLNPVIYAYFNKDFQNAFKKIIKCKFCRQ

[13] = molecular target: Sodium-dependent serotonin transporter (Homo sapiens) (UniProt P31645); conditions: Compound concentration 10.0 uM
[14] = tested on: Tyrosine-protein kinase ABL1 (Homo sapiens), P00519 [F317I]; conditions: Compound concentration 1000.0 nM
[15] = tested on: Tyrosine-protein kinase ABL1 (Homo sapiens), P00519 [M351T]; conditions: Compound concentration 1000.0 nM
[16] = molecular target: ALK tyrosine kinase receptor (Homo sapiens) (UniProt Q9UM73); conditions: Compound concentration 1000.0 nM
[17] = molecular target: Calcium/calmodulin-dependent protein kinase type IV (Homo sapiens) (UniProt Q16566); conditions: Compound concentration 1000.0 nM
[18] = molecular target: Calcium/calmodulin-dependent protein kinase kinase 1 (Homo sapiens) (UniProt Q8N5S9); conditions: Compound concentration 1000.0 nM
[19] = molecular target: Cyclin-dependent kinase 4 (Homo sapiens) (UniProt P11802); conditions: Compound concentration 1000.0 nM
Cyclin-dependent kinase 4 (Homo sapiens), sequence (P11802 whole entry): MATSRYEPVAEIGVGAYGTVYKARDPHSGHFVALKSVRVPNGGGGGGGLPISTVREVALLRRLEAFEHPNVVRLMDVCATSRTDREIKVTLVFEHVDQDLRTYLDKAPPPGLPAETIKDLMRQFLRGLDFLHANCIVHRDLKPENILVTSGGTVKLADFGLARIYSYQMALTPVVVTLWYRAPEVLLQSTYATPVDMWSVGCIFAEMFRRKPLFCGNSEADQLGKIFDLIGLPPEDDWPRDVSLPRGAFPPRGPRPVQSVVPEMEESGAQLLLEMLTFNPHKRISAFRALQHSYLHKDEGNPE

[20] = molecular target: Cyclin-dependent kinase 5 (Homo sapiens) (UniProt Q00535); conditions: Compound concentration 1000.0 nM
[21] = molecular target: Cyclin-dependent kinase 7 (Homo sapiens) (UniProt P50613); conditions: Compound concentration 1000.0 nM
Cyclin-dependent kinase 7 (Homo sapiens), sequence (P50613 whole entry): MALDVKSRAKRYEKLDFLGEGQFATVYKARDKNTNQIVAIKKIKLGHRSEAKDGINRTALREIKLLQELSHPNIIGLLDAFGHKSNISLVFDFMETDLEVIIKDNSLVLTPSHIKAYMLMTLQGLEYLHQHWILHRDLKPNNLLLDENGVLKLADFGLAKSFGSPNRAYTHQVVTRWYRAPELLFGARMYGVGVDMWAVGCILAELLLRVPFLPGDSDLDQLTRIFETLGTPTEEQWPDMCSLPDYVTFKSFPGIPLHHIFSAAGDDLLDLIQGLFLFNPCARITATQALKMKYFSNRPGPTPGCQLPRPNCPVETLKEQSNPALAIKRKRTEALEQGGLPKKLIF

[22] = molecular target: Dual specificity protein kinase CLK1 (Homo sapiens) (UniProt P49759); conditions: Compound concentration 1000.0 nM
[23] = molecular target: Macrophage colony-stimulating factor 1 receptor (Homo sapiens) (UniProt P07333); conditions: Compound concentration 1000.0 nM
[24] = tested on: Epidermal growth factor receptor (Homo sapiens), P00533 [L858R,T790M]; conditions: Compound concentration 1000.0 nM
[25] = molecular target: Ephrin type-A receptor 7 (Homo sapiens) (UniProt Q15375); conditions: Compound concentration 1000.0 nM
[26] = molecular target: Insulin receptor (Homo sapiens) (UniProt P06213); conditions: Compound concentration 1000.0 nM
[27] = molecular target: MAP kinase-activated protein kinase 2 (Homo sapiens) (UniProt P49137); conditions: Compound concentration 1000.0 nM
[28] = molecular target: Serine/threonine-protein kinase Nek5 (Homo sapiens) (UniProt Q6P3R8); conditions: Compound concentration 1000.0 nM
[29] = molecular target: Serine/threonine-protein kinase Nek7 (Homo sapiens) (UniProt Q8TDX7); conditions: Compound concentration 1000.0 nM
[30] = molecular target: Serine/threonine-protein kinase N1 (Homo sapiens) (UniProt Q16512); conditions: Compound concentration 1000.0 nM
[31] = molecular target: Serine/threonine-protein kinase SIK3 (Homo sapiens) (UniProt Q9Y2K2); conditions: Compound concentration 1000.0 nM
Serine/threonine-protein kinase SIK3 (Homo sapiens), sequence (Q9Y2K2 whole entry, looked up): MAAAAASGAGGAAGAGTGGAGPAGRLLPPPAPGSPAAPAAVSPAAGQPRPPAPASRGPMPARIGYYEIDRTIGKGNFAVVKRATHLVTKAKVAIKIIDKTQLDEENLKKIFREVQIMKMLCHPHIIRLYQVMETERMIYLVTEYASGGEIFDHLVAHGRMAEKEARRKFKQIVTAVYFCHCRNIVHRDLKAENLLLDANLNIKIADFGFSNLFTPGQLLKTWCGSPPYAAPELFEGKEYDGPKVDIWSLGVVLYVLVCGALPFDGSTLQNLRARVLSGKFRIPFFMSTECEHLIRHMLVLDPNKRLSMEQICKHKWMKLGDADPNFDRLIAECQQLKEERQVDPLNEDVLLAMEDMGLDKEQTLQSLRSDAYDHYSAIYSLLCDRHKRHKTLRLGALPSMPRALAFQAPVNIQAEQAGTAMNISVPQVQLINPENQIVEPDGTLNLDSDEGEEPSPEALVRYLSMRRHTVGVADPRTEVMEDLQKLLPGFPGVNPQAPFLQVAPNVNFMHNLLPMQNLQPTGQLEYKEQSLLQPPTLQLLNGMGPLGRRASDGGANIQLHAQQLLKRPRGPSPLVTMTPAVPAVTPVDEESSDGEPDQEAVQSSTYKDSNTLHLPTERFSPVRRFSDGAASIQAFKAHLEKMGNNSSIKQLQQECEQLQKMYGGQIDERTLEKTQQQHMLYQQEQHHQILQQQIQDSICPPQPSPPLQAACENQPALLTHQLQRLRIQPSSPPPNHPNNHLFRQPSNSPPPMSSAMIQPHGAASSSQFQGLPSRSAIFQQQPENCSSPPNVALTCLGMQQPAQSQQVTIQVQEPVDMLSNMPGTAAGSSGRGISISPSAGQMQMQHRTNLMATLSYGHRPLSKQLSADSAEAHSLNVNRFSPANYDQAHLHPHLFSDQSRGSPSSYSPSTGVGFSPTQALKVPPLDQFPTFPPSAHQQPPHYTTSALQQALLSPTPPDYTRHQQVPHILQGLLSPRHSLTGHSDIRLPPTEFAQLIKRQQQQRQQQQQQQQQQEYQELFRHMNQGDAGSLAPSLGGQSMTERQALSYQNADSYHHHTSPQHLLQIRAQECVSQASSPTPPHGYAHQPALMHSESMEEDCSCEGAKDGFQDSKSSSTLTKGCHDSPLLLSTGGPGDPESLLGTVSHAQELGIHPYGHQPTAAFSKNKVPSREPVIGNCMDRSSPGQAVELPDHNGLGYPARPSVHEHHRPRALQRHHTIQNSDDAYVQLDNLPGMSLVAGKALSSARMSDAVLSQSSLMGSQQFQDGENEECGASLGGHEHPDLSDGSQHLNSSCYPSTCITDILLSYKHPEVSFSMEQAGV

[32] = molecular target: Ribosomal protein S6 kinase alpha-4 (Homo sapiens) (UniProt O75676); conditions: Compound concentration 1000.0 nM
Ribosomal protein S6 kinase alpha-4 (Homo sapiens), sequence (O75676 whole entry, looked up): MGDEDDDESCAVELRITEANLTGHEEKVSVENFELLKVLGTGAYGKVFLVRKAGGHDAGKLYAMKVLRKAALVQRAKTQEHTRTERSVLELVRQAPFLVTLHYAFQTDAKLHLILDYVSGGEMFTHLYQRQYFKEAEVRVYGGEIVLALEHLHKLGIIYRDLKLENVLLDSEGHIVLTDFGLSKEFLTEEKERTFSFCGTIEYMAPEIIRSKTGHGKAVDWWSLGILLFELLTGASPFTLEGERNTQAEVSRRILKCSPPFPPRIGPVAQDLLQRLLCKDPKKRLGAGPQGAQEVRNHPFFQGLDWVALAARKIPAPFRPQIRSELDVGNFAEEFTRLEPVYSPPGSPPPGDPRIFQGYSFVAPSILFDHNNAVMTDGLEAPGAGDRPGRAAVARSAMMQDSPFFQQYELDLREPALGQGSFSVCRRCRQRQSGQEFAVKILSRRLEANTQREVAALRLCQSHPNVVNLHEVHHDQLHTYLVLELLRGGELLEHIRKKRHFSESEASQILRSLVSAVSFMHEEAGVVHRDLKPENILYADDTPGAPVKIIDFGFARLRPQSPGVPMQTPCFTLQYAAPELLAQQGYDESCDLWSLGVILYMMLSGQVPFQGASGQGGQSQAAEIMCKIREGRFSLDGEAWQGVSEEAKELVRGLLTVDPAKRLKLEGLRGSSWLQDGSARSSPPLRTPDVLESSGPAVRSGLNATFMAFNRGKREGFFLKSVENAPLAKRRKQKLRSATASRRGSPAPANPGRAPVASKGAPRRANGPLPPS

[33] = molecular target: Ribosomal protein S6 kinase alpha-6 (Homo sapiens) (UniProt Q9UK32); conditions: Compound concentration 1000.0 nM
[34] = molecular target: Serine/threonine-protein kinase TAO2 (Homo sapiens) (UniProt Q9UL54); conditions: Compound concentration 1000.0 nM
[35] = molecular target: Serine/threonine-protein kinase WNK2 (Homo sapiens) (UniProt Q9Y3S1); conditions: Compound concentration 1000.0 nM
[36] = molecular target: Tyrosine-protein kinase Yes (Homo sapiens) (UniProt P07947); conditions: Compound concentration 1000.0 nM
[37] = molecular target: Serine/threonine-protein kinase 25 (Homo sapiens) (UniProt O00506); conditions: Compound concentration 1000.0 nM
Serine/threonine-protein kinase 25 (Homo sapiens), sequence (O00506 whole entry, looked up): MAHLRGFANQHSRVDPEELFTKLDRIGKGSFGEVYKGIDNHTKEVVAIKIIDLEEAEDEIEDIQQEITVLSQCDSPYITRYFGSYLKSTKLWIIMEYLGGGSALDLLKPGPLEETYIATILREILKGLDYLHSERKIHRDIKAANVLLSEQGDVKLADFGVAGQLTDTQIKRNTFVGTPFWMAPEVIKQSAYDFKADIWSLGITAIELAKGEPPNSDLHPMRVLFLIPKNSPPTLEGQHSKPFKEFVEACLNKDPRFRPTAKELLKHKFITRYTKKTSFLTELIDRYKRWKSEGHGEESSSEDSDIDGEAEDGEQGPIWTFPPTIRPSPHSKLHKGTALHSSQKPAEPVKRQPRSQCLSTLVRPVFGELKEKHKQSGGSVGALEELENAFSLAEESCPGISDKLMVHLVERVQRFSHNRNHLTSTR

Mitogen-activated protein kinase kinase kinase 5 (Homo sapiens), sequence (Q99683 whole entry): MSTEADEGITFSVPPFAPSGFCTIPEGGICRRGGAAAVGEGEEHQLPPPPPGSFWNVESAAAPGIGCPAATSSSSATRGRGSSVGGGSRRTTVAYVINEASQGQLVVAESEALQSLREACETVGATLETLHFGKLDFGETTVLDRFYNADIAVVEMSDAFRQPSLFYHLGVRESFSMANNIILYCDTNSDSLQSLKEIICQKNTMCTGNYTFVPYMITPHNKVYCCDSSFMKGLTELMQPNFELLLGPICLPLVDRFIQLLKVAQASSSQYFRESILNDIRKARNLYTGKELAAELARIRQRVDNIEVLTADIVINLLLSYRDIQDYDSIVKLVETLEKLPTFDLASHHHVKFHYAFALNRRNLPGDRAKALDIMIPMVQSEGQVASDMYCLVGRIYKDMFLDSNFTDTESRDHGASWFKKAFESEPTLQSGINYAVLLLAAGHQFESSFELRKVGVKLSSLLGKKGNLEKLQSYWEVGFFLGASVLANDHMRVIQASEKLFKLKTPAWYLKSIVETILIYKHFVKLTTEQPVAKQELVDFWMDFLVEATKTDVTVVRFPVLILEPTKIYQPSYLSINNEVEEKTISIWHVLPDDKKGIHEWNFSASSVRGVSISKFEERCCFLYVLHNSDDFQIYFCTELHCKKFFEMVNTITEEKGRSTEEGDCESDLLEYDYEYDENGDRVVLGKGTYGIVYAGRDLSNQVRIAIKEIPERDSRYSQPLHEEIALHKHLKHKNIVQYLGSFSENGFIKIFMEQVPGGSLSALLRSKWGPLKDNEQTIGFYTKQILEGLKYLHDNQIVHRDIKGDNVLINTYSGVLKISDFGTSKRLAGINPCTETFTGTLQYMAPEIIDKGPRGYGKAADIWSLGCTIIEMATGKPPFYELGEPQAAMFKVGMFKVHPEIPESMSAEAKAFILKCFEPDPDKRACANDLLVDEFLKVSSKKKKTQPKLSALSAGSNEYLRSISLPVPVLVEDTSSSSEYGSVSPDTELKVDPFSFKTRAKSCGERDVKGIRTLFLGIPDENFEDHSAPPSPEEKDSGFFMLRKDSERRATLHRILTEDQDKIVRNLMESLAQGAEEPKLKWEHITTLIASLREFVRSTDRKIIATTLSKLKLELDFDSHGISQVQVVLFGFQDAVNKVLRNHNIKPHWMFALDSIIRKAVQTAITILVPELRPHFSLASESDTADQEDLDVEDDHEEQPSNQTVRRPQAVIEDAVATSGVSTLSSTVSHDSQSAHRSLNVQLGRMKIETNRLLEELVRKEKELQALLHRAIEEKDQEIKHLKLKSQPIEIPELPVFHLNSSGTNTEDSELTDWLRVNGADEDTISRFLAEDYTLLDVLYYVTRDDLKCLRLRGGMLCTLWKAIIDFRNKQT

## CC1=C(C#N)C(c2ccc3[nH]nc(C)c3c2)C(C#N)=C(C)N1 [BAY-474]
[1]
  inhibition: -6%
[2]
  inhibition: -8%
[3]
  inhibition: 9%
[4]
  inhibition: -8%
[5]
  inhibition: 12%
[6]
  inhibition: -3%
[7]
  inhibition: -3%
[8]
  inhibition: -7%
[9]
  inhibition at 3 h, 10 µM: -9% (not active)
[10]
  inhibition: 5%
[11]
  inhibition: -2%
[12]
  inhibition: -9%
[13]
  inhibition: 9%

## CC1=C(C#N)[C@@H](c2ccc3[nH]nc(C)c3c2)C(C#N)=C(c2ccc(Cl)cc2)N1 [BAY-827]
[14]
  residual activity: 100%
[15]
  residual activity: 94.6%
[16]
  residual activity: 84.7%
[17]
  residual activity: 31.8%
[18]
  residual activity: 93.7%
[19]
  residual activity: 100%
[20]
  residual activity: 100%
[21]
  residual activity: 100%
[22]
  residual activity: 100%
[23]
  residual activity: 100%
[24]
  residual activity: 100%
[25]
  residual activity: 91.2%
[26]
  residual activity: 100%
[27]
  residual activity: 100%
[28]
  residual activity: 80.3%
[29]
  residual activity: 87.4%
[30]
  residual activity: 91.4%
[31]
  residual activity: 100%
[32]
  residual activity: 81.4%
[33]
  residual activity: 100%
[34]
  residual activity: 100%
[35]
  residual activity: 100%
[36]
  residual activity: 100%
[37]
  residual activity: 100%

— ChEMBL document CHEMBL4507263, “Data for DCP probe BAY-474” (2021)
